{"source": "patent US3984440A", "about": "“Polyene compounds” (Hoffmann-La Roche Inc., priority 1973, dated 1976)", "key": {"[1]": {"test": "acute toxicity after intraperitoneal administration in rape oil", "conditions": "mouse, in vivo, ip"}, "[2]": {"system": "papillomas induced with dimethyl-benzanthracene and croton oil", "test": "papilloma test: regression of tumors induced with dimethyl-benzanthracene and croton oil", "assay_type": "in vivo", "conditions": "mice, intraperitoneal, 400mg/kg/week, within two weeks", "procedure": "The polyene compounds of formula I are useful in the topical and systemic prophylaxis and treatment of benignant and malignant neoplasias and premalignant lesions. The tumor-inhibiting activity of the polyene compounds of the invention is significant. […] The diameter of such papillomas in mice decreased by 55% within two weeks upon intraperitoneal administration of 400mg/kg/week of 9-(2,2,5,7,8-pentamethyl-chroman-6-yl)-3,7-dimethyl-nona-2,4,6,8-tetraen-1-oic acid."}}, "data": [{"smiles": "CC(/C=C/c1c(C)c(C)c2c(c1C)CCC(C)(C)O2)=C\\C=C\\C(C)=C\\C(=O)O", "note": "[9-(2,2,5,7,8-pentamethyl-chroman-6-yl)-3,7-dimethyl-nona-2,4,6,8-tetraen-1-oic acid]", "values": [{"measurement": "LD50", "setting": "[1]", "value": 950, "unit": "mg/kg"}, {"measurement": "LD50 at 24 h", "setting": "[1]", "value": "> 4000", "unit": "mg/kg"}, {"measurement": "LD50 at 240 h", "setting": "[1]", "value": 950, "unit": "mg/kg"}, {"measurement": "LD50 at 480 h", "setting": "[1]", "value": 950, "unit": "mg/kg"}, {"measurement": "decrease of diameter of papillomas", "setting": "[2]", "value": 55, "unit": "%"}]}]}
